The target in experiment [1] is Integrin alpha-V/beta-3 (Homo sapiens, UniProt P05106+P06756). As to the kind of experiment: Displacement of a non-peptide radioligand from human recombinant alphaV-beta3 integrin. Format: protein-complex assay.
The species entered for experiment [2] is Mus musculus. The experiment is described as follows: The ability of compound to inhibit the transformation of osteoblast-like cells originally derived from mouse calvaria, into osteoclasts by OCFORM assay. Format: functional, cell-based.

A value given as a limit tells only on which side of the number the result lay.

Chain of Integrin alpha-V/beta-3 (P05106 27-788 limits assumed): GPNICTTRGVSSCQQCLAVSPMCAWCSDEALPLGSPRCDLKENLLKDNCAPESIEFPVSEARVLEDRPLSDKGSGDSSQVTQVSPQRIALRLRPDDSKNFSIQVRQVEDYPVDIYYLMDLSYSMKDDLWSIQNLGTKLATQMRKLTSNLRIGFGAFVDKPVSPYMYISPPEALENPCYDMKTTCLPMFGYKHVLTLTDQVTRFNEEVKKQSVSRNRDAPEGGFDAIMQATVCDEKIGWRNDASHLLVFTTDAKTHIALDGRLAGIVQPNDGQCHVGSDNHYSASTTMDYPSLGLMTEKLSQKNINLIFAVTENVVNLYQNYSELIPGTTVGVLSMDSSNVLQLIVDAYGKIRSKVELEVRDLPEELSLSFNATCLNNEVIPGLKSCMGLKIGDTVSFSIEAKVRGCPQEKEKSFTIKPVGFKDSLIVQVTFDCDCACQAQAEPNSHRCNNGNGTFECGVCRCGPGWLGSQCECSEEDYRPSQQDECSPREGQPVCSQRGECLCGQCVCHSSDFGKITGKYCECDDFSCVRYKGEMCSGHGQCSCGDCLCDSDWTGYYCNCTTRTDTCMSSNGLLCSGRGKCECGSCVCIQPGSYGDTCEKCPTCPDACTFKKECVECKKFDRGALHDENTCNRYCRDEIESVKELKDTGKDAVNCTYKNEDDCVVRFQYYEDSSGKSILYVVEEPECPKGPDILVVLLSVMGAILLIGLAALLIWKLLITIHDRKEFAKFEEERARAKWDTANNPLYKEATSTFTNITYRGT
Chain of Integrin alpha-V/beta-3 (P06756 31-889 limits assumed): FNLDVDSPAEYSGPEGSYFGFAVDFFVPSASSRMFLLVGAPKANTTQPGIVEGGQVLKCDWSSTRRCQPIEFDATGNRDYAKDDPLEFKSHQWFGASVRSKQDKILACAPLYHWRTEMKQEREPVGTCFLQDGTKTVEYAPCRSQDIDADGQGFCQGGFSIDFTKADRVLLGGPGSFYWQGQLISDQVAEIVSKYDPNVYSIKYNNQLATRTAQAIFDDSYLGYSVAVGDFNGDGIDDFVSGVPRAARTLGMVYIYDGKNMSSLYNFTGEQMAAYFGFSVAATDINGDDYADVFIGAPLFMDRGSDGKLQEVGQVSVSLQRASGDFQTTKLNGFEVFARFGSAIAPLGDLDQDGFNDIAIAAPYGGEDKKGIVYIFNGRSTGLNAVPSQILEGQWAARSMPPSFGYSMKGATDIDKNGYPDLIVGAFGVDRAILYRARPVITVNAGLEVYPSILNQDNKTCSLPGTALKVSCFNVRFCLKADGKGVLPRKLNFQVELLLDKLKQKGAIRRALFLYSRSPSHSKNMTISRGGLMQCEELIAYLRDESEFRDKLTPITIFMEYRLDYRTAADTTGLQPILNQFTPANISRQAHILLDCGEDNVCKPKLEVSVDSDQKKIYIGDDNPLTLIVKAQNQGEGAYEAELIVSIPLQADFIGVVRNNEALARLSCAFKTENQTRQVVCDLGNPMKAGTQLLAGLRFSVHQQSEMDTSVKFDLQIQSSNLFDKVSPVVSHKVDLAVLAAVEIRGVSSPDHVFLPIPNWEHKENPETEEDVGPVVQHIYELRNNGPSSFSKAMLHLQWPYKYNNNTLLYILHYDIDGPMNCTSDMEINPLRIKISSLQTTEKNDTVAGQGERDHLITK
Chain of Integrin alpha-V/beta-3 (P06756 891-1048 limits assumed): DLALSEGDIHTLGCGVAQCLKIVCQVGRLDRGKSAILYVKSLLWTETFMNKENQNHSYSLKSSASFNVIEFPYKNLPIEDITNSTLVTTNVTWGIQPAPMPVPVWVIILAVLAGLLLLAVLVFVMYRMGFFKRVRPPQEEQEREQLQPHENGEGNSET

As for `N=C(N)NCCCCC(=O)NCC(=O)NCCC(=O)O`, the 50% inhibitory concentration (IC50) in experiment [1] was over 10 µM.

Consider `O=C(O)C[C@H](NC(=O)CN1CC[C@H](CCc2ccc3c(n2)NCCC3)C1=O)c1cccnc1`, for which the IC50 in experiment [2] was found to be 0.062 µM.

On to `N=C(N)NCCC[C@H](N)C(=O)NCC(=O)N[C@@H](CC(=O)O)C(=O)O`, for which the IC50 in experiment [1] is over 10 µM.

As to `O=C(O)C[C@H](NC(=O)CN1CC[C@@H](CCc2ccc3c(n2)NCCC3)C1=O)c1cccnc1`, the figures for the IC50 in experiment [1] and in experiment [2] were 0.00094 µM and 0.079 µM, respectively.

For `O=C(O)C[C@H](NC(=O)CN1CCCC(CCc2ccc3c(n2)NCCC3)C1=O)c1cccnc1` (some centres undefined), the IC50 in experiment [1] was 0.0012 µM; in experiment [2], 0.48 µM.

Take `O=C(O)C[C@H](NC(=O)CNC(=O)CCCc1ccc2c(n1)NCCC2)c1cccnc1`: the half-inhibitory concentration (IC50) in experiment [1] was 0.0013 µM.

Turning to `O=C(O)CCNC(=O)CNC(=O)CCCc1ccc2c(n1)NCCC2`, the IC50 in experiment [1] amounted to 0.111 µM.

As for `C#C[C@H](CC(=O)O)NC(=O)CNC(=O)CCCc1ccc2c(n1)NCCC2`, the IC50 in experiment [1] was found to be 0.0088 µM.

Turning to `C#C[C@H](CC(=O)O)NC(=O)CN1CC[C@H](CCc2ccc3c(n2)NCCC3)C1=O`, the IC50 in experiment [1] was 0.0029 µM; in experiment [2] it was 0.15 µM.

Consider `O=C(O)C[C@H](NC(=O)CN1CCN(CCc2ccc3c(n2)NCCC3)C1=O)c1cccnc1`, for which the half-maximal inhibitory concentration (IC50) in experiment [1] is 0.012 µM; in experiment [2] it was over 1 µM.

The term IC50 denotes the point on the concentration scale where inhibition reaches its midpoint.

For the origin of these results see ChEMBL document CHEMBL1135089, “Nonpeptide alpha(v)beta(3) antagonists. Part 2: constrained glycyl amides derived from the RGD tripeptide” (Bioorg Med Chem Lett, 2002).
